From patent US20250122225A1, “MASP-2 INHIBITORS AND METHODS OF USE” (Omeros Corporation, priority 2023, published 2025)
Where a name gives a salt, the structure may show the parent alone.

Tests used:
Format in all cases: biochemical
human α-thrombin = target: T1, human α-thrombin (Homo sapiens, UniProt P00734); assay: Enzymatic assay for thrombin (fluorogenic peptide substrate Boc-VPR-AMC)
T1 construct: enzyme (human α-thrombin (BioPharm® Lab.)) in assay buffer; purchased BioPharm® Lab
Outline: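 Human α-thrombin was run with the fluorogenic substrate Boc-VPR-AMC in 20 mM Hepes pH 7.4, 140 mM NaCl, 0.1% Tween 20 at room temperature for 20 min, then stopped with 0.1 M acetic acid. % activity was normalized to DMSO and no-enzyme controls. Under linear conditions IC50 equalled Ki, except for tight-binding inhibitors.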

[1] = test system: Lectin Pathway Activation in human serum; assay: Lectin Pathway Activation (LPA) assay in human serum, mannan-coated ELISA plate, C4c detection; details: 1% human serum, read-out: LPA Functional Activity (IC50)
Description: Lectin Pathway Activation (LPA) Assay in Human Serum Treated with Compounds
A microtiter ELISA plate was coated with mannan (1 mg/ml) from Saccharomyces cerevisiae (Sigma-Aldrich®, M7504) overnight at 4° C. in coating buffer [33.3 mM Na2CO3, 166.67 mM NaHCO3]. The plate was blocked with 5% bovine serum albumin (BSA) (Sigma-Aldrich®, A3294) in 1×PBST [Phosphate Buffered Saline Solution (1.06 mM KH2PO4, 155.2 mM NaCl, 2.97 mM Na2HPO4^−·7H2O, pH 7.4), 0.05% Tween-20] shaking for 2 hours at room temperature. 1% human serum was incubated with serial dilutions of small compounds in 1× LPA+ Buffer [20 mM Hepes, pH 7.4, 140 mM NaCl, 2 mM MgCl2 (6H2O)] and incubated for 5 minutes at room temperature. 40 μL of this mixture was then added to the plate, and the plate was incubated at room temperature for 55 mins. Next, the reaction was stopped by adding 20 μL of EDTA Stop Solution [20 mM Hepes, pH7.4, 140 mM NaCl, 150 mM EDTA] to the plate. The plate was then washed 10× in wash buffer 1×PBST; 40 μL of Rabbit Anti Human C4c Antibody [Dako®, Q0369] diluted 1:20000 in wash buffer was added; and the plate was incubated shaking at room temperature for 30 minutes. The plate was washed [5× times]; 40 μL of Goat Anti-rabbit Antibody-HRP Conjugate [Southern Biotech®, 4050-05] diluted 1:10000 in wash buffer was added; and the plate was incubated shaking at room temperature for 30 minutes. After that, the plate was washed five times; 40 µL/well of Amplex® UltraRed Substrate Solution [1× LPA Buffer, 10 mM Amplex® UltraRed Stock Solution [Thermo Fisher Sci.®, A36006], 3% stabilized hydrogen peroxide [Sigma Aldrich®, 216763] was added; the plate was incubated at room temperature for 16 minutes; the reaction was stopped by adding 8 µL/well of Amplex® UltraRed Stop Solution [Thermo Fisher Sci.®, A33855] in 100% EtOH. Finally, the plate was read for fluorescence at Ex: 550 nm, Em: 580 nm on the i3x Microplate Reader.

MASP-2 (CCP1-CCP2-SP) = target: T2, MASP-2 (CCP1-CCP2-SP) (Homo sapiens, UniProt O00187); assay: Enzymatic assay for MASP-2 inhibitory activity (fluorogenic substrate)
T2 construct: 15 μL of Enzyme MASP-2 (CCP1-CCP2-SP) in Assay Buffer
Outline: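 MASP-2 (CCP1-CCP2-SP) cleaved a fluorogenic substrate based on the C2 cleavage site in 20 mM HEPES pH 7.4, 140 mM NaCl, 0.1% Tween 20 at room temperature. After 20 min the reaction was stopped with 0.1 M acetic acid and fluorescence read. % activity was normalized to DMSO-only and no-enzyme controls; IC50 taken as Ki.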

T2 sequence (O00187 445-686 limits assumed): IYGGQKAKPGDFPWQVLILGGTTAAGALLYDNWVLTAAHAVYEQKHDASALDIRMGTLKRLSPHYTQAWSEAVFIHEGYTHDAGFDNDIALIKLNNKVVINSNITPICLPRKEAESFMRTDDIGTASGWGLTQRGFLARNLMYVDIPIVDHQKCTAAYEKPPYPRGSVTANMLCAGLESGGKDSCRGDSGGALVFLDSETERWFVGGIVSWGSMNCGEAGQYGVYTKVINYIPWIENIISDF
T2 sequence (O00187 287-444 partner limits assumed): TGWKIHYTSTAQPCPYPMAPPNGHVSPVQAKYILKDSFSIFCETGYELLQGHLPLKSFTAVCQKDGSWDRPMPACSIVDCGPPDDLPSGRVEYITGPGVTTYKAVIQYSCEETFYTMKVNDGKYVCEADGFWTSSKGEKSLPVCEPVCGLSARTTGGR

| Ki (human α-thrombin) [nM] | IC50 [1] [nM] | Ki (MASP-2 (CCP1-CCP2-SP)) [nM] | SMILES |
| --- | --- | --- | --- |
| < 500 | < 50 | < 500 | Cc1cc(C)cc([C@@H](CO)Nc2ncc3n(c2=O)[C@H](C(=O)NCc2cc4cnccc4[nH]2)CC3)c1 [Compound 75, (S)-N-((1H-pyrrolo[3,2-c]pyridin-2-yl)methyl)-3-(((S)-1-(3,5-dimethylphenyl)-2-hydroxyethyl)amino)-4-oxo-4,6,7,8-tetrahydropyrrolo[1,2-a]pyrazine-6-carboxamide] |
| 2500 to 10000 | < 50 | < 500 | Cc1nc(N)ccc1CNC(=O)[C@@H]1CCc2c(Cl)nc(NCc3cccc(-c4ccccc4)c3)c(=O)n21 [Compound 221, (S)-3-(([1,1′-biphenyl]-3-ylmethyl)amino)-N-((6-amino-2-methylpyridin-3-yl)methyl)-1-chloro-4-oxo-4,6,7,8-tetrahydropyrrolo[1,2-a]pyrazine-6-carboxamide trifluoroacetate] |
| 2500 to 10000 | < 50 | < 500 | CC1(C)C[C@@H](C(=O)NCc2cc3cnccc3[nH]2)n2c1cnc(NCc1ccccc1)c2=O [Compound 228, trifluoroacetate] |
| < 500 | < 50 | < 500 | Cc1cc(F)cc(CNc2ncc3n(c2=O)[C@H](C(=O)NCc2ccc(N)nc2C)CC3)c1 [Compound 69, (S)-N-((6-amino-2-methylpyridin-3-yl)methyl)-3-((3-fluoro-5-methylbenzyl)amino)-4-oxo-4,6,7,8-tetrahydropyrrolo[1,2-a]pyrazine-6-carboxamide] |

Continued, molecule first:

| SMILES | Ki (human α-thrombin) [nM] | IC50 [1] [nM] | Ki (MASP-2 (CCP1-CCP2-SP)) [nM] |
| --- | --- | --- | --- |
| O=C(NCc1cc2c(s1)CNC2)[C@@H]1CCc2cnc(N[C@H]3CCc4ccc(-c5ccccc5)cc43)c(=O)n21 [Compound 257] | < 500 | < 50 | < 500 |
| Cc1nc(N)ccc1CNC(=O)[C@@H]1CCc2c(Cl)nc(NCCc3cccnc3)c(=O)n21 [Compound 240] | < 500 | 50 to 500 | < 500 |
| Cc1cc(F)cc(CNc2ncc3n(c2=O)[C@H](C(=O)NCc2cnc(N)c(C)c2)CC3)c1 [Compound 213, (S)—N-((6-amino-5-methylpyridin-3-yl)methyl)-3-((3-fluoro-5-methylbenzyl)amino)-4-oxo-4,6,7,8-tetrahydropyrrolo[1,2-a]pyrazine-6-carboxamide trifluoroacetate] | < 500 | 50 to 500 | < 500 |
| Cc1ccc(C(F)(F)F)cc1CNc1ncc2n(c1=O)[C@H](C(=O)N[C@H](C)c1ccc(N)nc1)CC2 [Compound 197, (S)-N-((R)-1-(6-aminopyridin-3-yl)ethyl)-3-((2-methyl-5-(trifluoromethyl)benzyl)amino)-4-oxo-4,6,7,8-tetrahydropyrrolo[1,2-a]pyrazine-6-carboxamide trifluoroacetate] | > 25000 | < 50 | < 500 |
